Laboratory results: patent publication US11458189B2, “Cytoprotective drugs” (BALMES TRANSPLANTATION, priority 2017, dated 2022)
Starred links: 1 amine or outer side, 2 acyl side, 3 side chain; linkers in the order of their positions; H or OH if unused. Positions of bridges follow the written chain, without caps; N, C: chain ends. Non-standard residues stand in square brackets, D forms with d. Residues, ends and D or L forms follow the SMILES beside them. ξ: configuration not given here. *: point of attachment. pTerphenylCO(4''-OnC5H11) = CCCCCOc1ccc(-c2ccc(-c3ccc(C(=O)*)cc3)cc2)cc1; Orn(4R-OH,5R-OH) = O=C([C@H](C[C@@H](O)[C@@H](O)N[*:3])N[*:1])[*:2]; hTyr(3S-OH,4S-OH) = N[C@H](C(=O)O)[C@H](O)[C@@H](O)c1ccc(O)cc1; Pro(3S-OH,4S-Me) = C[C@H]1CN[C@H](C(=O)O)[C@H]1O; ξPro(4R-OH) = O=C(O)C1C[C@@H](O)CN1

Test system: Rat Primary Kidney Glomerular Endothelial cells
Assay: Oxygen and glucose deprivation followed by replenishment, cell survival (calcein AM), rat glomerular endothelial cells;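 for Survival rate (%): 100% is hypoxia control with glucose and 0% is untreated OGD control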
Assay type: cell-based
Experimental: Anidulafungin and micafungin were tested on Human Renal Glomerular Endothelial Cells (HRGEC, Innoprot P10665), on Human Renal Proximal Tubular Epithelial Cells (HRPTEpiC, Innoprot P10662), on Human Astrocytes (HA, caltag SC-1800), on Human Cardiac Microvascular Endothelial Cells (HCMEC, Caltag SC-6000), on Human Hepatic Sinusoidal Endothelial Cells (HHSEC, Caltag SC-5000), on Rat Primary Kidney Glomerular Endothelial cells (Cellbiologics, RN-6014G) and on Bovine Brain Microvascular Endothelial Cells (BBMEC, Caltag SC-B100).
In a first phase, these isolated, purified and cryopreserved cells are thawed and multiplied according to the supplier's recommendations in T75 or T175 flasks pre-coated with 2 μg of fibronectin/[…] (CORNING) for HRGEC, HCMEC, HHSEC and BBMEC, or 2 μg poly-L-lysin/cm^2 (Caltag SC-0403) for HRPTEpiC and HA, or 15 mL/flask 175 cm^2 gelatin-based solution (Cellbiologics) in the presence of endothelial cell supplemented growth medium ECM (P60104, INNOPROT, Caltag, SC-1001) for HRGEC, HCMEC, HHSEC, RPKGEC or BBMEC, or astrocyte cell supplemented growth medium AM (Caltag SC-1801) for HA or epithelial cell supplemented growth medium EpiCM (P60106, INNOPROT) for HRPTEpiC, at 37° C. under 5% CO2 and saturated humidity until their confluency. They are then harvested by trypsinization according to the method described by the supplier for exactly 5 minutes and then reseeded in new flasks a maximum of three times.
To carry out the oxygen and glucose deprivation test followed by their replenishment, the cells will be seeded in 96-well black plates with transparent flat bottom (GREINER). Once a sufficient number of cells has been obtained to allow seeding of 2000 to 15000 cells per well of 96-well plates depending on the cell type, the cells are seeded in these 96-well plates previously coated with an extracellular matrix as listed above for the flasks. The cells are cultured for 5 to 8 days according to the cell type, in the presence of the same growth medium as in the flask as described above except for HRGEC and HRPTEpiC for which DMEM (DUTSCHER) with 1 g/L of supplemented glucose is used, at 37° C. under 5% CO2 and saturated humidity to obtain confluency.
On the first day of oxygen and glucose deprivation, (5th, 6th, 7th or 8th day of culture), the culture conditions are drastically changed. The medium of all plates is removed and replaced by DMEM (DUTSCHER) medium without glucose and supplemented only with 1% penicillin-streptomycin (DUTSCHER). Anidulafungin or micafungin dissolved in dimethyl sulfoxide (DMSO) is then added to each well at the desired concentration, resulting in a maximum of 1% DMSO, and the plates are placed under hypoxia at <1% 02 and 5% CO2 at 37° C. for 24 hours of culture. Each compound was tested in a concentration range.
After 24 hours, the growth medium is changed and replaced by a richer medium, DMEM (DUTSCHER) at 1 g/L glucose and 2% FBS (INNOPROT) and 1% penicillin-streptomycin (DUTSCHER). These media will have been pre-equilibrated at 37° C. in advance. The cells are then returned to culture at 37° C. under 20% 02 and 5% CO2 for 22h.
After 22 hours of reoxygenation, the potential protective effect of anidulafungin or micafungin is measured by a cell viability test using calcein AM (CORNING), which is a dye substrate. The calcein AM can easily cross the cell membrane of the viable cells. The AM ester groups mask the part of the molecule that chelates calcium. Once inside the cells, the (non-fluorescent) calcein AM is hydrolyzed to (fluorescent) calcein by endogenous esterases. The resulting calcein molecule binds to calcium inside the cell and remains trapped inside the cell. These molecules emit strong green fluorescence when subjected to […] of a particular wavelength (495 nm). Since dead cells lack esterase activity, only living cells are labelled.
This cell viability test is performed in two steps. […]

[1] = [Anidulafungin] log μM 0.1760913
[2] = [Anidulafungin] log μM 0.4771213
[3] = [Anidulafungin] log μM 0.7781513
[4] = [Anidulafungin] log μM 0.845098
[5] = [Anidulafungin] log μM 0.9542425
[6] = [Anidulafungin] log μM −0.154902
[7] = [Anidulafungin] log μM −0.30103
[8] = [Anidulafungin] log μM −0.5228788

CCCCCOc1ccc(-c2ccc(-c3ccc(C(=O)N[C@H]4C[C@@H](O)[C@@H](O)NC(=O)[C@@H]5[C@@H](O)[C@@H](C)CN5C(=O)[C@H]([C@@H](C)O)NC(=O)[C@H]([C@H](O)[C@@H](O)c5ccc(O)cc5)NC(=O)C5C[C@@H](O)CN5C(=O)[C@H]([C@@H](C)O)NC4=O)cc3)cc2)cc1 (stereo partly drawn) [Anidulafungin] ({pTerphenylCO(4''-OnC5H11)}-[Orn(4R-OH,5R-OH)]T[ξPro(4R-OH)][hTyr(3S-OH,4S-OH)]T[Pro(3S-OH,4S-Me)]; lactam 1-C) was tested, and the “Globalfluo assay 1” value ([Anidulafungin] log μM 0) was 2763556 arbitrary units, the “Globalfluo assay 2” value ([Anidulafungin] log μM 0) was 3715544 arbitrary units and the “Globalfluo assay 3” value ([Anidulafungin] log μM 0) was 3395182 arbitrary units. The Mean globalfluo ([Anidulafungin] log μM 0) was 3291427 arbitrary units, the “Survival rate (%)” value ([Anidulafungin] log μM 0) was −1% and the “Globalfluo assay 1” value [1] was 4125220 arbitrary units. For the same compound, the “Globalfluo assay 2” value [1] was 3558016 arbitrary units, the “Globalfluo assay 3” value [1] was 4929089 arbitrary units and the Mean globalfluo [1] was 4204108 arbitrary units. The “Survival rate (%)” value [1] was 3%, the “Globalfluo assay 1” value ([Anidulafungin] log μM 0.30103) was 6944934 arbitrary units and the “Globalfluo assay 2” value ([Anidulafungin] log μM 0.30103) was 4307906 arbitrary units. For the same compound, the “Globalfluo assay 3” value ([Anidulafungin] log μM 0.30103) was 5211398 arbitrary units, the Mean globalfluo ([Anidulafungin] log μM 0.30103) was 5488079 arbitrary units and the “Survival rate (%)” value ([Anidulafungin] log μM 0.30103) was 8%. For the same compound, the “Globalfluo assay 1” value ([Anidulafungin] log μM 0.39794) was 7911533 arbitrary units, the “Globalfluo assay 2” value ([Anidulafungin] log μM 0.39794) was 3661322 arbitrary units and the “Globalfluo assay 3” value ([Anidulafungin] log μM 0.39794) was 9914104 arbitrary units. The Mean globalfluo ([Anidulafungin] log μM 0.39794) was 7162320 arbitrary units, the “Survival rate (%)” value ([Anidulafungin] log μM 0.39794) was 15% and the “Globalfluo assay 1” value [2] was 5124858 arbitrary units. The “Globalfluo assay 2” value [2] was 4212586 arbitrary units, the “Globalfluo assay 3” value [2] was 3823154 arbitrary units and the Mean globalfluo [2] was 4386866 arbitrary units. The “Survival rate (%)” value [2] was 4%, the “Globalfluo assay 1” value ([Anidulafungin] log μM 0.60206) was 7387656 arbitrary units and the “Globalfluo assay 2” value ([Anidulafungin] log μM 0.60206) was 4239781 arbitrary units. For the same compound, the “Globalfluo assay 3” value ([Anidulafungin] log μM 0.60206) was 4439823 arbitrary units, the Mean globalfluo ([Anidulafungin] log μM 0.60206) was 5355753 arbitrary units and the “Survival rate (%)” value ([Anidulafungin] log μM 0.60206) was 7%. For the same compound, the “Globalfluo assay 1” value ([Anidulafungin] log μM 0.69897) was 10033620 arbitrary units, the “Globalfluo assay 2” value ([Anidulafungin] log μM 0.69897) was 4718363 arbitrary units and the “Globalfluo assay 3” value ([Anidulafungin] log μM 0.69897) was 7321110 arbitrary units. The Mean globalfluo ([Anidulafungin] log μM 0.69897) was 7357698 arbitrary units, the “Survival rate (%)” value ([Anidulafungin] log μM 0.69897) was 16% and the “Globalfluo assay 1” value [3] was 10219130 arbitrary units. The “Globalfluo assay 2” value [3] was 11308900 arbitrary units, the “Globalfluo assay 3” value [3] was 8342703 arbitrary units and the Mean globalfluo [3] was 9956911 arbitrary units. For the same compound, the “Survival rate (%)” value [3] was 26%, the “Globalfluo assay 1” value [4] was 10949560 arbitrary units and the “Globalfluo assay 2” value [4] was 9736722 arbitrary units. For the same compound, the “Globalfluo assay 3” value [4] was 8273113 arbitrary units, the Mean globalfluo [4] was 9653132 arbitrary units and the “Survival rate (%)” value [4] was 25%. The “Globalfluo assay 1” value ([Anidulafungin] log μM 0.90309) was 15350400 arbitrary units, the “Globalfluo assay 2” value ([Anidulafungin] log μM 0.90309) was 11785650 arbitrary units and the “Globalfluo assay 3” value ([Anidulafungin] log μM 0.90309) was 7401575 arbitrary units. For the same compound, the Mean globalfluo ([Anidulafungin] log μM 0.90309) was 11512542 arbitrary units, the “Survival rate (%)” value ([Anidulafungin] log μM 0.90309) was 32% and the “Globalfluo assay 1” value [5] was 9960942 arbitrary units. The “Globalfluo assay 2” value [5] was 10967130 arbitrary units, the “Globalfluo assay 3” value [5] was 15364830 arbitrary units and the Mean globalfluo [5] was 12097634 arbitrary units. The “Survival rate (%)” value [5] was 35%, the “Globalfluo assay 1” value [6] was 3628425 arbitrary units and the “Globalfluo assay 2” value [6] was 3463582 arbitrary units. The “Globalfluo assay 3” value [6] was 3208621 arbitrary units, the Mean globalfluo [6] was 3433543 arbitrary units and the “Survival rate (%)” value [6] was 0%. For the same compound, the “Globalfluo assay 1” value [7] was 2638281 arbitrary units, the “Globalfluo assay 2” value [7] was 3646882 arbitrary units and the “Globalfluo assay 3” value [7] was 3842217 arbitrary units. The Mean globalfluo [7] was 3375793 arbitrary units, the “Survival rate (%)” value [7] was −1% and the “Globalfluo assay 1” value [8] was 3892260 arbitrary units. For the same compound, the “Globalfluo assay 2” value [8] was 3780606 arbitrary units, the “Globalfluo assay 3” value [8] was 4016223 arbitrary units and the Mean globalfluo [8] was 3896363 arbitrary units. For the same compound, the “Survival rate (%)” value [8] was 2%, the “Globalfluo assay 1” value ([Anidulafungin] log μM −1) was 3282790 arbitrary units and the “Globalfluo assay 2” value ([Anidulafungin] log μM −1) was 3299018 arbitrary units. For the same compound, the “Globalfluo assay 3” value ([Anidulafungin] log μM −1) was 4299152 arbitrary units, the Mean globalfluo ([Anidulafungin] log μM −1) was 3626987 arbitrary units and the “Survival rate (%)” value ([Anidulafungin] log μM −1) was 0%. For the same compound, the “Globalfluo assay 1” value ([Anidulafungin] log μM −2) was 5018485 arbitrary units, the “Globalfluo assay 2” value ([Anidulafungin] log μM −2) was 4417533 arbitrary units and the “Globalfluo assay 3” value ([Anidulafungin] log μM −2) was 3450400 arbitrary units. The Mean globalfluo ([Anidulafungin] log μM −2) was 4295473 arbitrary units, the “Survival rate (%)” value ([Anidulafungin] log μM −2) was 3% and the “Globalfluo assay 1” value ([Anidulafungin] log μM −3) was 2824954 arbitrary units. The “Globalfluo assay 2” value ([Anidulafungin] log μM −3) was 3274736 arbitrary units, the “Globalfluo assay 3” value ([Anidulafungin] log μM −3) was 3773899 arbitrary units and the Mean globalfluo ([Anidulafungin] log μM −3) was 3291196 arbitrary units. For the same compound, the “Survival rate (%)” value ([Anidulafungin] log μM −3) was −1%.
